Read-outs that look alike come from different tables or passages of the source.
Tests used:
[1] = test system: C32 human melanoma cells; experiment: cell viability in the C32 cell-based assay (Viability, C32 IC50); settings: concentration causing 50% cell death, values greater than 10 represent a lack of cell death
In short: (§1)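 Cell death was scored within the cell-based GM3 experiment for each line. The viability value is the concentration producing 50% death, and numbers exceeding 10 signify no cytotoxicity.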

[2] = test system: GM3 expression on the cell surface, C32 human melanoma cells; experiment: cell based phenotypic assay, cell surface GM3 by antibody mediated immunofluorescence, C32 (GM3 C32 IC50); settings: 50% inhibition of GM3 expression on the cell surface
In short: (§2)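 B16 mouse and C32 human melanoma cells; cell-surface GM3 measured by antibody-mediated immunofluorescence, giving IC50.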

[3] = test system: B16 mouse melanoma cells; experiment: cell viability in the B16 cell-based assay (Viability, B16 IC50)
In short: as §1

[4] = test system: GM3 expression on the cell surface, B16 mouse melanoma cells; experiment: cell based phenotypic assay, cell surface GM3 by antibody mediated immunofluorescence, B16 (GM3 B16 IC50); settings: 50% inhibition of GM3 expression on the cell surface
In short: as §2

[5] = target: T1, glucosylceramide synthase (Homo sapiens, UniProt Q16739); experiment: microsomal assay measuring conversion of ceramide to glucosylceramide by HPLC (GCS IC50); format: biochemical; settings: concentration causing 50% inhibition of glucosylceramide synthase activity
T1 construct: Microsomes were isolated from A375 human melanoma cells; endogenous in cells; host or cells: A375 human melanoma cells (microsomal fraction, 100,000 g pellet)
T1 sequence (Q16739 1-394): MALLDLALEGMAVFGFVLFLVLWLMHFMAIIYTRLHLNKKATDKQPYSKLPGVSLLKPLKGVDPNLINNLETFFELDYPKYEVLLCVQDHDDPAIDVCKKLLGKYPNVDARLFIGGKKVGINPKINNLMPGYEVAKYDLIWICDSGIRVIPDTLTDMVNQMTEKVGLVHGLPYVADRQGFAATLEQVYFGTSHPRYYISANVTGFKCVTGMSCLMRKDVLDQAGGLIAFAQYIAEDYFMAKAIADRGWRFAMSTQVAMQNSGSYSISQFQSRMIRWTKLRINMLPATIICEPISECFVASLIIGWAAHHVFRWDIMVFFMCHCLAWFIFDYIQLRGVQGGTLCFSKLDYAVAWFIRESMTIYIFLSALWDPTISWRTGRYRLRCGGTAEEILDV
In short: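 IC50 is the compound concentration halving glucosylceramide synthase activity. Activity was measured in microsomes, with HPLC quantifying glucosylceramide formed from ceramide.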

[6] = Homo sapiens, C32, C32 cells, read-out: Viability, C32 IC50
[7] = Homo sapiens, C32 human melanoma cells, read-out: GM3 C32 IC50
[8] = Mus musculus, B16, B16 cells, concentration causing 50% cell death, values greater than 10 represent a lack of cell death, read-out: Viability, B16 IC50
[9] = Mus musculus, B16 mouse melanoma cells, read-out: GM3 B16 IC50
[10] = Homo sapiens, C32, read-out: Viability, C32 IC50, C32 cells
[11] = Homo sapiens, read-out: GM3 C32 IC50, C32 human melanoma cells
[12] = Mus musculus, B16, read-out: Viability, B16 IC50
[13] = Mus musculus, read-out: GM3 B16 IC50, B16 mouse melanoma cells

Compound	IC50 [2, 7]	IC50 [4, 9]	IC50 [5]	IC50 [1, 6]	IC50 [3, 8]	IC50 [1, 10]	IC50 [2, 11]	IC50 [3, 12]	IC50 [4, 13]	IC50 ([1]; C32 cells, read-out: Viability, C32 IC50)	IC50 ([2]; C32 human melanoma cells, read-out: GM3 C32 IC50)	IC50 ([3]; B16 cells, concentration causing 50% cell death, values greater than 10 represent a lack of cell death, read-out: Viability, B16 IC50)	IC50 ([4]; B16 mouse melanoma cells, read-out: GM3 B16 IC50)
O=C(OC1CC2CCN(CC2)C1)N1CCN(c2cccc(-c3ccccc3)c2)CC1 (stereo not shown) [Example 20, 1-Azabicyclo[3.2.2]nonan-3-yl 4-([1,1′-biphenyl]-3-yl)piperazine-1-carboxylate]	10700 nM	4470 nM	16600 nM	≥ 15100 nM	7710 nM								
CCC1(NC(=O)NC(C)(C)c2ccc(C(=O)N3CCN(c4ccccc4)CC3)cc2)CN2CCC1CC2 (stereo not shown) [Example 306, 1-(3-Ethylquinuclidin-3-yl)-3-(2-(4-(4-phenylpiperazine-1-carbonyl)phenyl)propan-2-yl)urea]	32 nM	257 nM	95.1 nM	3160 nM	≥ 10000 nM								
CC1(NC(=O)C2(F)CCN(c3nccc(OCc4ccc(F)cc4)n3)CC2)CN2CCC1CC2 (stereo not shown) [Example 125, 4-Fluoro-1-(4-((4-fluorobenzyl)oxy)pyrimidin-2-yl)-N-(3-methylquinuclidin-3-yl)piperidine-4-carboxamide]	0.0509 nM	17.7 nM	0.643 nM	158 nM	4290 nM								
COCc1ccc(-c2ccnc(N3CCC(C)(C(=O)NC4(C)CCN5CCC4CC5)CC3)n2)cc1 (stereo not shown) [Example 96, 1-(4-(4-(Methoxymethyl)phenyl)pyrimidin-2-yl)-4-methyl-N-(4-methyl-1-azabicyclo[3.2.2]nonan-4-yl)piperidine-4-carboxamide]	0.804 nM	145 nM	7 nM	1000 nM	3390 nM								
COCCCOc1cnc(-c2ccc(C(C)(C)NC(=O)OC3CN4CCC3CC4)cc2)cn1 (stereo not shown) [Example 320, Quinuclidin-3-yl (2-(4-(5-(3-methoxypropoxy)pyrazin-2-yl)phenyl)propan-2-yl)carbamate]			131 nM			1000 nM	11.2 nM	≥ 10000 nM	201 nM				
COCCOCc1ccc(-c2ccnc(N3CCC(F)(C(=O)N[C@]4(C)CN5CCC4CC5)CC3)n2)cc1 [Example 84, (S)-4-Fluoro-1-(4-(4-((2-methoxyethoxy)methyl)phenyl)pyrimidin-2-yl)-N-(3-methylquinuclidin-3-yl)piperidine-4-carboxamide]	0.621 nM	90.3 nM	5.35 nM	1000 nM	≥ 10000 nM								
CC1(NC(=O)C2CCN(c3ncnc(-c4ccc(F)cc4)n3)CC2)CCN2CCC1CC2 (stereo not shown) [Example 50, 1-(4-(4-Fluorophenyl)-1,3,5-triazin-2-yl)-N-(4-methyl-1-azabicyclo[3.2.2]nonan-4-yl)piperidine-4-carboxamide]	0.708 nM	162 nM	32.5 nM	3160 nM	≥ 10000 nM								
CC1(NC(=O)C2(F)CCN(c3nccc(-c4ccc(F)cc4)n3)CC2)CN2CCC1CC2 (stereo not shown) [Example 95, 4-Fluoro-1-(4-(4-fluorophenyl)pyrimidin-2-yl)-N-(3-methylquinuclidin-3-yl)piperidine-4-carboxamide]	0.0836 nM	20 nM	0.585 nM	31.6 nM	4690 nM								
CCC1(NC(=O)NC2(c3ccc(-c4ccc(OCCOC)cc4)cc3)CC2)CN2CCC1CC2 (stereo not shown) [Example 164, 1-(3-Ethylquinuclidin-3-yl)-3-(1-(4′-(2-methoxyethoxy)-[1,1′-biphenyl]-4-yl)cyclopropyl)urea]	0.205 nM	2.51 nM	6.16 nM	173 nM	1000 nM								
CC1(NC(=O)C2CCN(c3cccc(-c4cncnc4)c3)CC2)CCN2CCC1CC2 (stereo not shown) [Example 40, N-(4-Methyl-1-azabicyclo[3.2.2]nonan-4-yl)-1-(3-(pyrimidin-5-yl)phenyl)piperidine-4-carboxamide]	15.2 nM	5500 nM	291 nM	1000 nM	71.3 nM								
COCCOc1ccc(-c2nc(C(C)(C)NC(=O)OC3CN4CCC3CC4)cs2)cc1 (stereo not shown) [Example 343, Quinuclidin-3-yl (2-(2-(4-(2-methoxyethoxy)phenyl)thiazol-4-yl)propan-2-yl)carbamate]			360 nM			1000 nM	19.8 nM	≥ 10000 nM	106 nM				
CC(C)(NC(=O)OC1CN2CCC1CC2)c1ccc(-c2ccc(OCCn3cccn3)cc2)cc1 (stereo not shown) [Example 179, Quinuclidin-3-yl (2-(4′-(2-(1H-pyrazol-1-yl)ethoxy)-[1,1′-biphenyl]-4-yl)propan-2-yl)carbamate]			6.73 nM			3160 nM	4.99 nM	8730 nM	95.2 nM				
1-(4-(4-(2-Methoxyethoxy)phenyl)-2-methylbut-3-yn-2-yl)-3-(3-propylquinuclidin-3-yl)urea [Example 330]			104 nM							3160 nM	6.41 nM	≥ 10000 nM	203 nM

The next lines start with results.

IC50 [2, 7]	IC50 [4, 9]	IC50 [5]	Compound	IC50 [1, 6]	IC50 [3, 8]	IC50 [1, 10]	IC50 [2, 11]	IC50 [3, 12]	IC50 [4, 13]	IC50 ([1]; C32 cells, read-out: Viability, C32 IC50)	IC50 ([2]; C32 human melanoma cells, read-out: GM3 C32 IC50)	IC50 ([3]; B16 cells, concentration causing 50% cell death, values greater than 10 represent a lack of cell death, read-out: Viability, B16 IC50)	IC50 ([4]; B16 mouse melanoma cells, read-out: GM3 B16 IC50)
53 nM	1440 nM	593 nM	CC(C)(NC(=O)OC1CCN2CCC1CC2)c1cccc(Oc2cccc(C(=O)N3CCOCC3)c2)c1 (stereo not shown) [Example 278, 1-Aza-bicyclo[3.2.2]nonan-4-yl 2-(3-(3-(morpholine-4-carbonyl)phenoxy)phenyl)propan-2-ylcarbamate]	≥ 10000 nM	≥ 10000 nM								
0.888 nM	209 nM	5.96 nM	CC1CN(C(=O)NC2(C)CCN3CCC2CC3)CCN1c1nccc(-c2ccccc2)n1 (stereo not shown) [Example 141, 3-Methyl-N-(4-methyl-1-azabicyclo[3.2.2]nonan-4-yl)-4-(4-phenylpyrimidin-2-yl)piperazine-1-carboxamide]	316 nM	4670 nM								
4.78 nM	67.3 nM	30.4 nM	CC(C)(NC(=O)OC1CCN2CCC1CC2)c1ccc(-c2ccc(C(=O)N3CC(F)(F)C3)cc2)cc1 (stereo not shown) [Example 274, 1-Aza-bicyclo[3.2.2]nonan-4-yl 2-(4′-(3,3-difluoroazetidine-1-carbonyl)biphenyl-4-yl)propan-2-ylcarbamate]	1000 nM	≥ 10000 nM								
8.5 nM	103 nM	76 nM	COCCOc1ccc(-c2cccc(C(C)(C)NC(=O)OC3CCN4CCC3CC4)c2)nc1 (stereo not shown) [Example 311, 1-Azabicyclo[3.2.2]nonan-4-yl 2-(3-(5-(2-methoxyethoxy)pyridin-2-yl)phenyl)propan-2-ylcarbamate]	3160 nM	≥ 10000 nM								
1.39 nM	31.3 nM	12.3 nM	COCCOCc1ccc(-c2ccc(C3(NC(=O)NC4(C)CCN5CCC4CC5)CC3)cc2)cc1 (stereo not shown) [Example 207, 1-(1-(4′-((2-Methoxyethoxy)methyl)-[1,1′-biphenyl]-4-yl)cyclopropyl)-3-(4-methyl-1-azabicyclo[3.2.2]nonan-4-yl)urea]	1780 nM	≥ 10000 nM								
2.65 nM	115 nM	10.7 nM	CC1(NC(=O)C2(F)CCN(c3ncc(OCc4ccc(F)cc4)cn3)CC2)CCN2CCC1CC2 (stereo not shown) [Example 132, 4-Fluoro-1-(5-((4-fluorobenzyl)oxy)pyrimidin-2-yl)-N-(4-methyl-1-azabicyclo[3.2.2]nonan-4-yl)piperidine-4-carboxamide]	1000 nM	4590 nM								
1.54 nM	87.6 nM	6.85 nM	CC(C)(NC(=O)NC1(C)CCN2CCC1CC2)c1ccc(Oc2ccc(C(=O)N3CCCCC3)cc2)cc1 (stereo not shown) [Example 300, 1-(4-Methyl-1-aza-bicyclo[3.2.2]nonan-4-yl)-3-(2-(4-(4-(piperidine-1-carbonyl)phenoxy)phenyl)propan-2-yl)urea]	316 nM	≥ 10000 nM								
